Tests used:
Assay type in all cases: in vivo, mouse
VEGF = VEGF serum levels during different diets in TRAMP mice; settings: FIG. 4; diet fortified 10%; two-ways ANOVA; RED007 P<0.0001; Lycopene P=0.204
Excerpt: FIG. 4: VEGF serum levels during different diets. Values represent mean ±SD(n8mice). […] RED007 may be also designated “Lycoprozen”. The two terms are interchangeable herein.
(§1) FIG. 6: VEGF serum levels during different diets. Values represent mean±SD(n8mice). The control diet was fortified with a 10% mixture of A and B components. The two components were mixed according to different Acomponent/Bcomponent ratios (w/w), i.e. 99.5:0.5, 98.0:2.0 (RED007 diet), and 96.0:4.0, respectively.

IL6 = IL6 serum levels during different diets in TRAMP mice; settings: FIG. 5; diet fortified 10%; two-ways ANOVA; RED007 P<0.0001; Lycopene P=0.314
Excerpt: FIG. 5: IL6 serum levels during different diets. Values represent mean±SD(n8mice).
as §1, with “7: IL6” for “6: VEGF”, “mean ±SD(n8mice).” for “mean±SD(n8mice).”

TRAMP mice = experiment: Kaplan-Meier survival of TRAMP mice fed fortified diets; settings: Lycopene treated, not significantly different from Control Diet (11%), P=0.384, unpublished observations
Excerpt: In man, early prostate tumorigenesis appears to be associated with a dysplasia that starts with proliferative inflammatory atrophy which may progress to low-grade Prostatic Intraepithelial Neoplasia (PIN), to high-grade PIN, to primary cancer, to metastatic cancer, and to hormone refractory cancer after hormonal treatment (23,24). Transgenic adenocarcinoma of the mouse prostate (TRAMP) is a model in which the progression of prostate cancer mirrors the stages of the human form, from PIN to undifferentiated, androgen independent tumor (25). Expression od the SV40 early genes driven by the prostate-specific promoter probasin leads to prostate cell transformation and all TRAMP mice develop prostate cancer spontaneously. This model, therefore, is regularly used to assess chemoprevention of prostate cancer (22).
In a recent paper (36), we reported that a tomato diet (Control Diet enriched with 10% of a “tomato powder”, whose composition is reported in Table 1), increased TRAMP mice survival.

CC(C)=CCC/C(C)=C/C=C/C(C)=C/C=C/C(C)=C/C=C/C=C(C)/C=C/C=C(C)/C=C/C=C(\C)CCC=C(C)C [Lycopene, lycopene]
VEGF serum levels compared to Control Diet (VEGF): did not significantly modify
IL6 serum levels compared to Control Diet (IL6): did not significantly modify
survival proportion (TRAMP mice): 17%

Source: US20160228484A1, “TOMATO POWDER-BASED COMPOSITION” (MEDIAPHARMA S.R.L., priority 2013, published 2016)
